Experimental data reported in PMC12211128, “Safety, tolerability, pharmacokinetic and pharmacodynamic effects of the muscarinic M1 positive allosteric modulator VU0467319 for Alzheimer’s disease: a single ascending-dose study in healthy participants” (Alzheimer's Research & Therapy, 2025).
Marks after values point to notes of the source that are not given here.

System: healthy participants
Experiment: 12-lead ECG / QTcF and concentration/QT analysis
Assay type: in vivo, human
Conditions: for QTcF: mean (SD)
Procedure: Safety and tolerability were assessed throughout the study via treatment emergent adverse event (TEAE) monitoring, vital signs (blood pressure, pulse rate, respiration rate, oral temperature), physical examinations, 12-lead ECGs, and clinical laboratory parameters including complete blood count (CBC), coagulation, hematology, clinical chemistry assessments, and urinalysis. Safety laboratory tests were drawn at pre-dose and at 5, 24, 36 and 144-hours post-dose for 60–400 mg Cohorts; and at 24, 48, 72 and 144-hours post-dose for the 600 mg and Food Effect Cohort. ECG assessments were conducted at pre-dose and at 1, 2, 3, 5, 9, 24, 36 and 144-hours post-dose for 60–400 mg Cohorts; and at 2, 3, 5, 9, 24, 36, 72 and 144-hours post-dose for the 600 mg and Food Effect Cohort. All adverse events (AEs) were assessed by the investigator for severity and relationship to study medication or study procedures.
All AEs were coded using the Medical Dictionary for Regulatory Activities (MedDRA) version 22.0. All AEs were listed, and the emergence of TEAEs were categorized by body system affected and analyzed to determine whether they were related to treatment. Analysis of TEAEs for VU319 vs. Placebo were completed using Fisher’s Exact Test. Assessment of the grade of toxicity or relation to the study drug for each adverse event was determined by the Investigator. Changes in vital signs, physical examination, and laboratory tests were collected. Changes in vital signs from pre-dose to 48 h post-dose were placed into 10-time bins and assessed using mixed-measures ANOVA with the time bins as the within-subjects factor and dose as the between-subjects factor. To assess changes is QT analyses with respect to VU319 concentration, we calculated the maximal change in QTcF from baseline for each participant. We assessed the relationship between these maximal changes from baseline with the participant’s Cmax using Pearson correlations. Outlier QTcF values (> 450 ms) were also assessed against PK concentrations to examine it there was any relationship using Pearson correlations. Analyses of safety data was completed by SAS version 9.4.

Which results are given for `Cn1cc2c(-c3cc(F)c(CN4Cc5ncccc5C4=O)c(F)c3)cccc2n1` [VU319]?
QTcF (Food effect study, 120 mg Fasted, +2 hour): 405.0 (22.7); QTcF (Food effect study, 120 mg Fasted, +3 hour): 405.9 (19.13); QTcF (Food effect study, 120 mg Fasted, +5 hour): 406.4 (18.05); QTcF (Food effect study, 120 mg Fasted, +9 hour): 405.5 (14.4); QTcF (Food effect study, 120 mg Fasted, +24 hour): 401.2 (19.21); QTcF (Food effect study, 120 mg Fasted, +36 hour): 405.2 (23.74); QTcF (Food effect study, 120 mg Fasted, +72 hour): 403.2 (16.39); QTcF (Food effect study, 120 mg Fasted, +144 hour): 405.1 (19.72); QTcF (Food effect study, 120 mg Fasted, Baseline): 408.9 (20.1); QTcF (Food effect study, 120 mg Fed, +2 hour): 399.2 (19.09); QTcF (Food effect study, 120 mg Fed, +3 hour): 402.3 (24.08); QTcF (Food effect study, 120 mg Fed, +5 hour): 405.0 (16.01); QTcF (Food effect study, 120 mg Fed, +9 hour): 402.5 (19.51); QTcF (Food effect study, 120 mg Fed, +24 hour): 403.0 (16.89); QTcF (Food effect study, 120 mg Fed, +36 hour): 399.5 (21.91); QTcF (Food effect study, 120 mg Fed, +72 hour, n = 9, in ms): 402.7 (17.38)^#; QTcF (Food effect study, 120 mg Fed, +144 hour): 403.6 (24.86); QTcF (Food effect study, 120 mg Fed, Baseline): 406.7 (21.7); QT intervals, effect of dose (SAD study): no significant dose-by-time interactions or main effects of dose group; QTcF (SAD study, 60 mg, +1 hour): 411.0 (11.82); QTcF (SAD study, 60 mg, +2 hour): 414.8 (18.13); QTcF (SAD study, 60 mg, +3 hour): 412.8 (23.01); QTcF (SAD study, 60 mg, +5 hour): 417.2 (19.47); QTcF (SAD study, 60 mg, +9 hour): 411.3 (21.31); QTcF (SAD study, 60 mg, +24 hour): 408.7 (8.52); QTcF (SAD study, 60 mg, +36 hour, n = 5): 410.6 (10.5)*; QTcF (SAD study, 60 mg, +144 hour): 415.5 (7.66); QTcF (SAD study, 60 mg, Baseline): 418.0 (17.1); QTcF (SAD study, 120 mg, +1 hour): 409.7 (15.34); QTcF (SAD study, 120 mg, +2 hour): 407.0 (21.02); QTcF (SAD study, 120 mg, +3 hour): 412.7 (20.02); QTcF (SAD study, 120 mg, +5 hour): 406.8 (15.5); QTcF (SAD study, 120 mg, +9 hour): 409.2 (16.68); QTcF (SAD study, 120 mg, +24 hour): 408.3 (12.64); QTcF (SAD study, 120 mg, +36 hour): 408.0 (18.17); QTcF (SAD study, 120 mg, +144 hour): 406.7 (17.95); QTcF (SAD study, 120 mg, Baseline): 406.0 (12.23); QTcF (SAD study, 240 mg, +1 hour): 422.7 (22.05); QTcF (SAD study, 240 mg, +2 hour): 415.5 (28.46); QTcF (SAD study, 240 mg, +3 hour): 421.7 (19.48); QTcF (SAD study, 240 mg, +5 hour): 414.8 (24.28); QTcF (SAD study, 240 mg, +9 hour): 421.0 (15.03); QTcF (SAD study, 240 mg, +24 hour): 415.2 (16.22); QTcF (SAD study, 240 mg, +36 hour): 418.2 (24.29); QTcF (SAD study, 240 mg, +144 hour): 422.8 (12.32); QTcF (SAD study, 240 mg, Baseline): 426.0 (33.22); QTcF (SAD study, 400 mg, +1 hour): 405.3 (24.45); QTcF (SAD study, 400 mg, +2 hour): 405.0 (26.62); QTcF (SAD study, 400 mg, +3 hour): 405.3 (25.65); QTcF (SAD study, 400 mg, +5 hour): 405.2 (27.72); QTcF (SAD study, 400 mg, +9 hour): 400.7 (23.41); QTcF (SAD study, 400 mg, +24 hour): 400.7 (17.13); QTcF (SAD study, 400 mg, +36 hour): 404.5 (20.16); QTcF (SAD study, 400 mg, +144 hour): 410.5 (10.21); QTcF (SAD study, 400 mg, Baseline): 401.8 (24.13); QTcF (SAD study, 600 mg, +2 hour): 419.7 (27.65); QTcF (SAD study, 600 mg, +3 hour): 419.5 (31.48); QTcF (SAD study, 600 mg, +5 hour): 413.8 (23.37); QTcF (SAD study, 600 mg, +9 hour): 413.8 (26.54); QTcF (SAD study, 600 mg, +24 hour): 408.0 (17.38); QTcF (SAD study, 600 mg, +36 hour): 418.2 (24.79); QTcF (SAD study, 600 mg, +72 hour): 413.3 (19.22); QTcF (SAD study, 600 mg, +144 hour): 415.7 (23.99); QTcF (SAD study, 600 mg, Baseline): 416.0 (25.35); relationship between change in QTcF from baseline and Cmax (SAD study, p > 0.6): did not show a significant relationship; relationship between change in QTcF from baseline and Cmax (food effect study, Fasted p > 0.4, Fed p > 0.5): did not show a significant relationship
